These molecules were tested against T1, Mitogen-activated protein kinase kinase kinase 7 (Homo sapiens, UniProt O43318) (assay: Inhibition of TAK1 (unknown origin)).
T1 sequence (O43318 whole entry): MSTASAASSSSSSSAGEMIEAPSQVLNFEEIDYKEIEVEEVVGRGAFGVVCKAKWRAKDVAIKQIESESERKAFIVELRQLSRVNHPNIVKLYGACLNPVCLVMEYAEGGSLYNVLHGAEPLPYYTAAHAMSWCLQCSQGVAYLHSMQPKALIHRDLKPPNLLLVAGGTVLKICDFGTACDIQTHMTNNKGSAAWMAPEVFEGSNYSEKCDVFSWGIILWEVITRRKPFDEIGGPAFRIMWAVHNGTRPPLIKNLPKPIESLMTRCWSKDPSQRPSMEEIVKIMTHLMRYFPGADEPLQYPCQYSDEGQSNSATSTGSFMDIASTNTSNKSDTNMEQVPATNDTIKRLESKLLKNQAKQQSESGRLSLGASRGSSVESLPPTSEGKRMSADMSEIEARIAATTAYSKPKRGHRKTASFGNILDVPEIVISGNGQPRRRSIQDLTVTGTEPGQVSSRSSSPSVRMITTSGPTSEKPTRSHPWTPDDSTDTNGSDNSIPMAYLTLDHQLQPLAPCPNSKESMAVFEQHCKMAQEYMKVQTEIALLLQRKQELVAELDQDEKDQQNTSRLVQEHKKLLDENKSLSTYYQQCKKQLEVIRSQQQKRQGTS

| Compound | IC50 |
| --- | --- |
| COc1cc(O)c2c(c1)/C=C/C[C@H](O)[C@H](O)C(=O)CCC[C@H](C)OC2=O | 2.6 µM |
| COc1cc(O)c2c(c1)[C@H]1O[C@@H]1C[C@H](O)[C@H](O)C(=O)CCC[C@H](C)OC2=O | > 30 µM |
| C/C=C/C=C\C(=O)[C@@H](O)[C@@H](O)C/C=C/c1cc(OC)cc(OC)c1C(=O)OC | > 30 µM |

Further lines, results first:

| IC50 | Compound |
| --- | --- |
| > 30 µM | COc1cc(O)cc2c1C(=O)O[C@@H](C)CCCCC/C=C/C(=O)C2 |
| > 30 µM | COc1cc(O)c2c(c1)/C=C/C[C@@H]1OC(CC(=O)[C@H]1O)C[C@H](C)OC2=O |

Reference: ChEMBL document CHEMBL3627640 (Bioorg Med Chem, 2015)
